Experimental data: patent US12077503B2, “Substituted cyclic amides and their use as herbicides” (FMC CORPORATION, priority 2015, dated 2024)

Key:
Type in all cases: in vivo
corn (Zea mays) = test: Test A preemergence; conditions: Zea mays, pre-emergence, 240 h, 0 to 100 scale (0 no effect, 100 complete control)
How it was run: (§1)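 Ratings of 0 (no effect) to 100 (complete control) come from visual comparison with untreated controls roughly 10 d after treatment. Test chemicals, formulated in a non-phytotoxic solvent mixture with surfactant, were applied either as a preemergence directed soil spray on seeded soil or postemergence to one- to two-leaf plants 2 to 10 cm tall.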

[1] = tested on: crabgrass, large (Digitaria sanguinalis); test: Test A preemergence; conditions: Digitaria sanguinalis, pre-emergence, 240 h, 0 to 100 scale (0 no effect, 100 complete control), read-out: Plant response rating, Crabgrass, Large
How it was run: as §1

[2] = tested on: morningglory (Ipomoea spp.); test: Test A preemergence; conditions: Ipomoea, pre-emergence, 240 h, 0 to 100 scale (0 no effect, 100 complete control), read-out: Plant response rating, Morningglory
How it was run: as §1

[3] = tested on: velvetleaf (Abutilon theophrasti); test: Test A preemergence; conditions: Abutilon theophrasti, pre-emergence, 240 h, 0 to 100 scale (0 no effect, 100 complete control), read-out: Plant response rating, Velvetleaf
How it was run: as §1

[4] = tested on: wheat (Triticum aestivum); test: Test A preemergence; conditions: Triticum aestivum, pre-emergence, 240 h, 0 to 100 scale (0 no effect, 100 complete control), read-out: Plant response rating, Wheat
How it was run: as §1

[5] = tested on: crabgrass, large (Digitaria sanguinalis); test: Test A postemergence; conditions: Digitaria sanguinalis, post-emergence, 240 h, Postemergence
How it was run: as §1

[6] = tested on: morningglory (Ipomoea spp.); test: Test A postemergence; conditions: Ipomoea, post-emergence, 240 h, Postemergence
How it was run: as §1

[7] = tested on: velvetleaf (Abutilon theophrasti); test: Test A postemergence; conditions: Abutilon theophrasti, post-emergence, 240 h, Postemergence
How it was run: as §1

O=C1NCC(c2ccccc2)C1C(=O)Nc1ccc(C(F)(F)F)cc1 (stereo not shown) [Compound 1362]
0%: Corn plant response rating (crop injury, 0 = no effect, 100 = complete kill) at 500 g/ha (corn (Zea mays); 500 g ai/ha, preemergence) | Corn plant response rating (crop injury, 0 = no effect, 100 = complete kill) at 125 g/ha (corn (Zea mays); Preemergence, 125 g ai/ha) | pest or weed control at 500 g/ha ([1]; 500 g ai/ha, preemergence) | pest or weed control at 125 g/ha ([1]; Preemergence, 125 g ai/ha) | pest or weed control at 500 g/ha ([2]; 500 g ai/ha, preemergence) | pest or weed control at 125 g/ha ([2]; Preemergence, 125 g ai/ha) | pest or weed control at 500 g/ha ([3]; 500 g ai/ha, preemergence) | pest or weed control at 125 g/ha ([3]; Preemergence, 125 g ai/ha) | plant injury at 500 g/ha ([4]; 500 g ai/ha, preemergence) | plant injury at 125 g/ha ([4]; Preemergence, 125 g ai/ha) | pest or weed control at 125 g/ha ([5]; 125 g ai/ha, visual rating about 10 d after treatment, read-out: Crabgrass, Large plant response rating (0 to 100 scale)) | pest or weed control at 500 g/ha ([5]; 500 g ai/ha, visual injury, 0 to 100 scale (0 no effect, 100 complete control), approx. 10 d, read-out: Plant response rating, Crabgrass, Large) | pest or weed control at 125 g/ha ([6]; 125 g ai/ha, visual rating about 10 d after treatment, read-out: Morningglory plant response rating (0 to 100 scale)) | pest or weed control at 500 g/ha ([6]; 500 g ai/ha, visual injury, 0 to 100 scale (0 no effect, 100 complete control), approx. 10 d, read-out: Plant response rating, Morningglory) | pest or weed control at 125 g/ha ([7]; 125 g ai/ha, visual rating about 10 d after treatment, read-out: Velvetleaf plant response rating (0 to 100 scale)) | pest or weed control at 500 g/ha ([7]; 500 g ai/ha, visual injury, 0 to 100 scale (0 no effect, 100 complete control), approx. 10 d, read-out: Plant response rating, Velvetleaf)
